{"source": "patent US10106542B2", "about": "“Substituted 6,7-dihydropyrazolo[1,5-a]pyrazines as negative allosteric modulators of mGluR2 receptors” (Janssen Pharmaceutica NV, priority 2013, dated 2018)", "target": "T1, human mGlu2 receptor (Homo sapiens, UniProt Q14416)", "T1 construct": "expressed in transfected cells; host or cells: CHO cells (membrane preparation)", "T1 sequence (Q14416 19-872)": "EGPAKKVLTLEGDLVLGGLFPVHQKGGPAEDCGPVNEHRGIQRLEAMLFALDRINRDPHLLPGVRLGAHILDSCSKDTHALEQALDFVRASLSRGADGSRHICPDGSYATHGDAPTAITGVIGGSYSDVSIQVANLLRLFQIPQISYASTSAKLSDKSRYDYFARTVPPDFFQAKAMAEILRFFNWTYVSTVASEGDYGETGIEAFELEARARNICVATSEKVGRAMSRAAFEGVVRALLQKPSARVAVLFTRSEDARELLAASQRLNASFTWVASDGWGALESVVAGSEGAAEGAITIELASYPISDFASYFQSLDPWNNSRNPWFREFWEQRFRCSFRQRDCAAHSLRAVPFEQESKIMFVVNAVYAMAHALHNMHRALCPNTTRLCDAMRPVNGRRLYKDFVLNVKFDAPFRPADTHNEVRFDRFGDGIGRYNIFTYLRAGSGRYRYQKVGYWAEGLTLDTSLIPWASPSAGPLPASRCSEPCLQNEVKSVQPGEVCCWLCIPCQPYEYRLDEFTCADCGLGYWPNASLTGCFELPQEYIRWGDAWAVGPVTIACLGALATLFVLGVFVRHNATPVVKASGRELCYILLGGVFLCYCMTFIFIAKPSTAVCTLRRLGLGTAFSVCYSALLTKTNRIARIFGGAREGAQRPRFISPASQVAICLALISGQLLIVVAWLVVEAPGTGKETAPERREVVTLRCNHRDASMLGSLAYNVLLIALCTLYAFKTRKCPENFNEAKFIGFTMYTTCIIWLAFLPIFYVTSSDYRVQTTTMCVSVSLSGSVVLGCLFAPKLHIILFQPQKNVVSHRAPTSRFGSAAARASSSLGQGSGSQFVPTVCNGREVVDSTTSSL", "assay": "[35S]GTPγS binding assay (mGluR2 negative allosteric modulation)", "type": "biochemical", "how_it_was_run": "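Negative allosteric modulation read as [35S]GTPγS (0.1 nM) incorporation over 30 min at 30 °C, expressed as % of the response to an EC80-equivalent glutamate concentration. Assay used 7 μg human mGlu2 CHO membrane protein in HEPES pH 7.4 buffer with NaCl, MgCl2, GDP and saponin; bound label collected by filtration.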"}
{"smiles": "Cc1cc(-c2cnn3c2C(=O)N(c2ccc(C(F)(F)F)cc2)C[C@@H]3C)ccn1", "note": "[compound 1, (7S)-7-Methyl-3-(2-methylpyridin-4-yl)-5-[4-(trifluoromethyl)phenyl]-6,7-dihydropyrazolo[1,5-a]pyrazin-4(5H)-one]", "values": [{"measurement": "GTPγS - hmGluR2 anGT pIC50", "setting": "membranes from CHO cells transfected with human mGlu2 receptor, glutamate 60 μM, pIC50 = −log IC50 (M)", "result": 8.05}, {"measurement": "Emax", "setting": "relative maximal effect: maximal % inhibition relative to the control glutamate response, read-out: GTPγS - hmGluR2 anGT Emax", "result": 106, "unit": "%"}]}
